Assay: CYP reaction phenotyping in HLM with selective CYP inhibitors
Settings: ketoconazole 1 or 10 μM; ticlopidine 20 μM; mitragynine 2 μM

For CC(=O)N1CCN(c2ccc(OCC3COC(Cn4ccnc4)(c4ccc(Cl)cc4Cl)O3)cc2)CC1 (centres unmarked) [ketoconazole], the “effect on decomposition of mitragynine in HLM” value was “robustly inhibited” and the “effect on formation of 7-OH from mitragynine in HLM” value was “robustly inhibited”.

— PMC6598159 (ACS Central Science, 2019)
